T1: Adenosylhomocysteinase (Rattus norvegicus) (UniProt P10760)
T1 sequence (whole entry): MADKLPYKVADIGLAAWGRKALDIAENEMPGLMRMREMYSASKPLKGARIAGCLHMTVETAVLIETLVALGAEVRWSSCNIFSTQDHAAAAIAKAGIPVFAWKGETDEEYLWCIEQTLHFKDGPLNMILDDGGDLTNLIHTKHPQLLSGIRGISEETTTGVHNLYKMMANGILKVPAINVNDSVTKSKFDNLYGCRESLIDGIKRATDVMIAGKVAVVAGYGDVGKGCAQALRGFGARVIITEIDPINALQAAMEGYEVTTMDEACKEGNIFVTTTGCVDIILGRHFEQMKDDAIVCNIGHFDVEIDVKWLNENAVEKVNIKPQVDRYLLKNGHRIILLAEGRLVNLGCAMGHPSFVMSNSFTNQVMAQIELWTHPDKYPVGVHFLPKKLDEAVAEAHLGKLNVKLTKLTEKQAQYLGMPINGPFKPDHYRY

T2: Adenosylhomocysteinase (Rattus norvegicus, UniProt P10760)
T2 sequence (P10760 whole entry): T1 sequence (whole entry)

B1: Adenosylhomocysteinase (Rattus norvegicus), P10760 (protein)
chain: T1 sequence (whole entry)

Experiments:
[1] = target: T1, Adenosylhomocysteinase (Rattus norvegicus); test: Inhibitory activity against rat liver S-adenosyl-L-homocysteine hydrolase
Adenosylhomocysteinase = target: T2, Adenosylhomocysteinase; test: Inhibitory constant against rat liver S-adenosyl-L-homocysteine hydrolase
[2] = substrate: Nc1ncnc2c1ncn2C1O[C@](F)(CO)[C@@H](O)[C@H]1O; test: Michaelis constant towards rat liver S-adenosyl-L-homocysteine hydrolase was calculated

Molecule	kinact [1]	Ki (Adenosylhomocysteinase)	Km [2]
Nc1ncnc2c1ncn2C1O[C@](F)(CO)[C@@H](O)[C@H]1O (stereo partly drawn)	0.24 min⁻¹	166 µM	
B1			1 µM

Reference: ChEMBL document CHEMBL1128653, “Synthesis of 4-fluoroadenosine as an inhibitor of S-adenosyl-L-homocysteine hydrolase” (Bioorg Med Chem Lett, 1995)
